Measurements from US10471050B2, “2-OXO-1,2-dihydropyridine-3,5-dicarboxamide compounds as bromodomain inhibitors” (GlaxoSmithKline Intellectual Property (No. 2) Limited, priority 2015, dated 2019).
Where two headings read alike, the source gives them in different places.

Tests used:
BRD4 BD2 = target: T1, BRD4 BD2 (Homo sapiens, UniProt O60885, Y97A); test: BRD4 BD2 TR-FRET competition assay; assay type: binding
T1 construct: BRD4 (1-477) (Y97A) and (Y390A); made in house; host or cells: E. coli (pET15b vector)
Description: Bromodomain binding was assessed utilising a time resolved fluorescent resonance energy transfer (TR-FRET) competition assay. To enable this approach a known, high affinity, pan-BET interacting small molecule was labelled with Alexa Fluor® 647, which is a far-red-fluorescent dye (Reference Compound X). Reference Compound X acts as a reporter of bromodomain binding and is the acceptor fluorophore component of the TR-FRET pair. Europium chelate, conjugated to an anti-6*His antibody, was utilised as the donor fluorophore in the TR-FRET pair. […] A TR-FRET signal is generated when the donor and acceptor fluorophores are in close proximity, between 20-80 Å, which is enabled in this assay by binding of Reference Compound X to the bromodomain protein.
In order to generate a TR-FRET signal, donor fluorophore is excited by a laser at λ337 nm, which subsequently leads to emission at λ618 nm. If the acceptor fluorophore is in close proximity then energy transfer can occur, which leads to emission of Alexa Fluor® 647 at λ665 nm. In the presence of competitor compound, Reference Compound X can be displaced from binding to the bromodomain. If displacement occurs, the acceptor fluorophore is no longer in proximity to the donor fluorophore, which prevents fluorescent energy transfer and, subsequently, a loss of Alexa Fluor® 647 emission at λ665 nm.
(§1) The competition of the compounds of formula (I) with Reference Compound X for binding to the BET family (BRD2, BRD3, BRD4 and BRDT) was assessed using protein truncates spanning both bromodomain 1 (BD1) and bromodomain 2 (BD2). In order to monitor differential binding to either BD1 or BD2, single residue mutations of key tyrosines to alanine were made in the acetyl lysine binding pockets. To validate this approach, a double residue mutant tandem domain protein was produced for each of the BET family members. Utilising a Fluorescence Polarisation approach, binding affinities for each of the single and double mutants for Reference Compound X were determined.
Final purification was completed by Superdex 200 prep grade size exclusion column. Purified protein was stored at −80° C. in 20 mM HEPES pH 7.5 and 100 mM NaCl.
All assay components were dissolved in an assay buffer composing of 50 mM HEPES pH7.4, 50 mM NaCl, 5% Glycerol, 1 mM DTT and 1 mM CHAPS. Reference Compound X was diluted, in assay buffer containing 20 nM single mutant, tandem bromodomain protein, to a concentration equivalent to 2*Kd for this bromodomain. The solution containing bromodomain and Reference Compound X was added to dose response dilutions of test compound or DMSO vehicle (a maximum of 0.5% DMSO is used in this assay) in Greiner 384 well black low volume microtitre plates and subsequently incubated for 30 minutes at room temperature. An equal volume of 3 nM of anti-6*His Europium chelate was added to all wells, followed by a further 30 minute incubation at room temperature. TR-FRET was detected using a Perkin Elmer Multimode plate reader, by exciting the donor fluorophore at λ337 nm and subsequently, after a delay of 50 μsecs, measuring emission of the donor and acceptor fluorophores at λ615 nm and λ665 nm, respectively. In order to control these assays, 16 replicates each of uninhibited (DMSO vehicle) and inhibited (10*IC50 concentrations of Example 11 of WO 2011/054846A1) TR-FRET assays were included on every microtitre plate.
cA four parameter curve fit of the following form was then applied: y=a+((b−a)/(1+(10^x/10^c)^d)
Where ‘a’ is the minimum, ‘b’ is the Hill slope, ‘c’ is the pIC50 and ‘d’ is the maximum.

[1] = system: BET family (BRD2, BRD3, BRD4 and BRDT) tandem bromodomain proteins, Tyr to Ala mutants; test: Fluorescence Polarisation binding of Reference Compound X to single and double mutant tandem BET proteins; set-up: species or system Human
Description: as §1, with “determined. […] The affinities of the single mutated bromdomain tandem proteins for Reference Compound X were equi-potent with the corresponding non-mutated BET protein. […] In the TR-FRET competition assay, Reference Compound X is used at a concentration that is equivalent to the Kd for the non-mutated bromodomain, which ensures that no binding at the mutated bromodomain is detected.” for “determined.”
Protein production: Recombinant Human Bromodomains [(BRD2 (1-473) (Y113A) and (Y386A), BRD3 (1-435) (Y73A) and (Y348A) BRD4 (1-477) (Y97A) and (Y390A) and BRDT (1-397) (Y66A) and (Y309A)] were expressed in E. coli cells (in pET15b vector for BRD2/3/4 and in pET28a vector for BRDT) with a 6-His tag at the N-terminal. The His-tagged Bromodomain pellet was resuspended in 50 mM HEPES (pH7.5), 300 mM NaCl, 10 mM imidazole & 1 μl/ml protease inhibitor cocktail and extracted from the E. coli cells using sonication and purified using a nickel sepharose high performance column, the proteins were washed and then eluted with a linear gradient of 0-500 mM imidazole with buffer 50 mM HEPES (pH7.5), 150 mM NaCl, 500 mM imidazole, over 20 column volumes. Final purification was completed by Superdex 200 prep grade size exclusion column. Purified protein was stored at −80° C. in 20 mM HEPES pH 7.5 and 100 mM NaCl. Protein identity was confirmed by peptide mass fingerprinting and predicted molecular weight confirmed by mass spectrometry.

[2] = single mutant tandem BRD4, read-out: pIC50 in the BRD4 BD2 assay (converted)
[3] = average of N recorded values, read-out: BRD4 BD2 IC50 (average value) (converted)

SMILES	IC50 (BRD4 BD2; [2]) [nM]	other results
CNC(=O)c1cc(C(=O)NCCc2cn[nH]c2)cn(Cc2cccc(OC)c2)c1=O [Example 17, N^5-(2-(1H-pyrazol-4-yl)ethyl)-1-(3-methoxybenzyl)-N^3-methyl-2-oxo-1,2-dihydropyridine-3,5-dicarboxamide]	100 to 1000	–
CNC(=O)c1cc(C(=O)NCCc2c[nH]cn2)cn(Cc2cccc(OCCO)c2)c1=O [Example 19, N^5-(2-(1H-imidazol-4-yl)ethyl)-1-(3-(2-hydroxyethoxy)benzyl)-N^3-methyl-2-oxo-1,2-dihydropyridine-3,5-dicarboxamide]	100 to 1000	–
CNC(=O)c1cc(C(=O)NCCc2cnc[nH]2)cn(Cc2ccccc2)c1=O [Example 8, N^5-(2-(1H-Imidazol-5-yl)ethyl)-1-benzyl-N^3-methyl-2-oxo-1,2-dihydropyridine-3,5-dicarboxamide]	100 to 1000	–
CNC(=O)c1cc(C(=O)NCCc2cn[nH]c2)cn(Cc2cccc(C)c2)c1=O [Example 13, N^5-(2-(1H-Pyrazol-4-yl)ethyl)-N^3-methyl-1-(3-methylbenzyl)-2-oxo-1,2-dihydropyridine-3,5-dicarboxamide]	≤ 100	IC50 (BRD4 BD2; [3]): 100 nM
CNC(=O)c1cc(C(=O)NCCc2cn[nH]c2)cn([C@H](C)c2ccccc2)c1=O [Example 15, (R)-N^5-(2-(1H-Pyrazol-4-yl)ethyl)-N^3-methyl-2-oxo-1-(1-phenylethyl)-1,2-dihydropyridine-3,5-dicarboxamide]	≤ 100	–
CNC(=O)c1cc(C(=O)NCCC(C)O)cn(Cc2ccccc2)c1=O (stereo not shown) [Example 39, 1-Benzyl-N^5-(3-hydroxybutyl)-N^3-methyl-2-oxo-1,2-dihydropyridine-3,5-dicarboxamide]	100 to 1000	–
CNC(=O)c1cc(C(=O)NCCc2ccn[nH]2)cn(Cc2ccccc2)c1=O [Example 50, N^5-(2-(1H-Pyrazol-5-yl)ethyl)-1-benzyl-N^3-methyl-2-oxo-1,2-dihydropyridine-3,5-dicarboxamide]	100 to 1000	–
CNC(=O)c1cc(C(=O)NCCCO)cn(Cc2ccccc2)c1=O [Example 32, 1-Benzyl-N^5-(3-hydroxypropyl)-N^3-methyl-2-oxo-1,2-dihydropyridine-3,5-dicarboxamide]	100 to 1000	–
CCNC(=O)c1cc(C(=O)NC)c(=O)n(Cc2cccc3[nH]ccc23)c1 [Example 25, 1-((1H-Indol-4-yl)methyl)-N^5-ethyl-N^3-methyl-2-oxo-1,2-dihydropyridine-3,5-dicarboxamide]	≤ 100	IC50 (BRD4 BD2; [3]): 25.1 nM
CNC(=O)c1cc(C(=O)NCCCNC(=O)OC(C)(C)C)cn(Cc2ccccc2)c1=O [Example 6, tert-Butyl (3-(1-benzyl-5-(methylcarbamoyl)-6-oxo-1,6-dihydropyridine-3-carboxamido)propyl)carbamate]	100 to 1000	–
CNC(=O)c1cc(C(=O)NCCCN(C)C)cn(Cc2ccccc2)c1=O [Example 47, 1-Benzyl-N^5-(3-(dimethylamino)propyl)-N^3-methyl-2-oxo-1,2-dihydropyridine-3,5-dicarboxamide]	100 to 1000	–
CNC(=O)c1cc(C(=O)NCC(C)OC)cn(Cc2ccccc2)c1=O (stereo not shown) [Example 29, 1-Benzyl-N^5-(2-methoxypropyl)-N^3-methyl-2-oxo-1,2-dihydropyridine-3,5-dicarboxamide]	1000 to 100000	–
CNC(=O)c1cc(C(=O)NCCc2cn[nH]c2)cn(Cc2cccc(OCCO)c2)c1=O [Example 21, N^5-(2-(1H-pyrazol-4-yl)ethyl)-1-(3-(2-hydroxyethoxy)benzyl)-N^3-methyl-2-oxo-1,2-dihydropyridine-3,5-dicarboxamide]	100 to 1000	–
CNC(=O)CCCNC(=O)c1cc(C(=O)NC)c(=O)n(Cc2ccccc2)c1 [Example 5, 1-Benzyl-N^3-methyl-N^5-(4-(methylamino)-4-oxobutyl)-2-oxo-1,2-dihydropyridine-3,5-dicarboxamide]	100 to 1000	–
CNC(=O)c1cc(C(=O)NC)c(=O)n(Cc2cccc(C#N)c2)c1 [Example 43, 1-(3-Cyanobenzyl)-N^3,N^5-dimethyl-2-oxo-1,2-dihydropyridine-3,5-dicarboxamide]	1000 to 100000	–
CCCNC(=O)c1cc(C(=O)NC)c(=O)n(Cc2ccccc2)c1 [Example 2, 1-Benzyl-N^3-methyl-2-oxo-N^5-propyl-1,2-dihydropyridine-3,5-dicarboxamide]	100 to 1000	IC50 (BRD4 BD2; [3]): 126 nM
COc1ccc2c(c1)C(c1ccc(Cl)cc1)=N[C@@H](CC(=O)NCCCCCNC(=O)CCCCCC1(C)/C(=C/C=C/C=C/C3=[N+](CCCCS(=O)(=O)O)c4ccc(S(=O)(=O)O)cc4C3(C)C)N(CCCCS(=O)(=O)[O-])c3ccc(S(=O)(=O)O)cc31)c1nnc(C)n1-2 (stereo partly shown) [Reference Compound X]	–	reduction in Kd, double mutant tandem proteins versus non mutated wild type tandem BET proteins ([1]; double residue Tyr to Ala mutant tandem protein of each BET family member): > 1000 fold; affinity of single mutated bromodomain tandem proteins versus corresponding non-mutated BET protein ([1]; single Tyr to Ala mutants): equi-potent; reduction of Kd of the interaction between the mutated bromodomain and Reference Compound X ([1]; single mutation of Tyrosine to Alanine): > 1000 fold
